Test results from ChEMBL document CHEMBL2074301, “Effect of endotoxin on doxorubicin transport across blood-brain barrier and P-glycoprotein function in mice” (Eur J Pharmacol, 2002).

Target: ATP-dependent translocase ABCB1 (Mus musculus, UniProt P21447)
Test: TP_TRANSPORTER: Western in vivo, brain of ddY mouse
Format: functional, organism-based

Chain of ATP-dependent translocase ABCB1 (P21447 whole entry): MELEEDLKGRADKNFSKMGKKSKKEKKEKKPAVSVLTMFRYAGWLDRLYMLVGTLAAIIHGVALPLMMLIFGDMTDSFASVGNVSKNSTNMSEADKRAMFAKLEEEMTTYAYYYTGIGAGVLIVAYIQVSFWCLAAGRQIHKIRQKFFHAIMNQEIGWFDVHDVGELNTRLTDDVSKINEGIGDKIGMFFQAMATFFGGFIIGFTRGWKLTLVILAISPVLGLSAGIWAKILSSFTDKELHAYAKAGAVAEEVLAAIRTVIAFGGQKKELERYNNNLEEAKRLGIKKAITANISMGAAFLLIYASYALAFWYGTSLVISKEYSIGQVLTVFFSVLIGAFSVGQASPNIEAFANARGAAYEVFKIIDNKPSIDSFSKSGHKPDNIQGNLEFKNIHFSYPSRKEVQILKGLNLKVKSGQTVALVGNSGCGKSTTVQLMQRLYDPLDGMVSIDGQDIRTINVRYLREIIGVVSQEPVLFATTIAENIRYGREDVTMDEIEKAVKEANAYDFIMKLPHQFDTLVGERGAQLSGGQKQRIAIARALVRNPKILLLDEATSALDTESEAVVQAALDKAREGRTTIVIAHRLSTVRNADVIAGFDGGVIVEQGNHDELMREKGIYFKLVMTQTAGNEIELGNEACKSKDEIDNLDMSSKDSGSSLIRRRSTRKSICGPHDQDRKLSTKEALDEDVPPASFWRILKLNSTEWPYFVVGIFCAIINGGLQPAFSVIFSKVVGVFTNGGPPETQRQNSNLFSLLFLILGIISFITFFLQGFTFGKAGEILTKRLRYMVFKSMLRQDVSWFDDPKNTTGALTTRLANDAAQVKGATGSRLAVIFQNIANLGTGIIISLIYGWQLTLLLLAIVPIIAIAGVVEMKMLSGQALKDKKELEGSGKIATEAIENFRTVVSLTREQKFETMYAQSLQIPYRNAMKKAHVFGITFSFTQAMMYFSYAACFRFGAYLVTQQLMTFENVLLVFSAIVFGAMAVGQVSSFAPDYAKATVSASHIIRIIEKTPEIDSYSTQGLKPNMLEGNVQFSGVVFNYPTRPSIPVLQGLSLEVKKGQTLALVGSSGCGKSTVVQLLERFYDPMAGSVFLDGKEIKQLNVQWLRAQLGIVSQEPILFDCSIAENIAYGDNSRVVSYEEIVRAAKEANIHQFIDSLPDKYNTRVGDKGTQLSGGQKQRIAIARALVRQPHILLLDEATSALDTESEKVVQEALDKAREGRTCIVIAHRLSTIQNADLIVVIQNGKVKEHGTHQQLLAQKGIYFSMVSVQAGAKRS

Activity: inducer [Decrease]
SMILES: CCCCCCCCCCCCCC(=O)OC(CCCCCCCCCCC)CC(=O)OC1C(NC(=O)CC(CCCCCCCCCCC)OC(=O)CCCCCCCCCCC)C(OC2CC(OC(=O)CC(O)CCCCCCCCCCC)C(NC(=O)CC(O)CCCCCCCCCCC)C(O)O2)OC(CO)C1OP(=O)(O)O (stereo unspecified)
